Data reported in patent US12678427B2, “Combination therapy having antioxydant properties” (GENFIT, priority 2019, dated 2026).

Tested on: Nrf2-ARE-mediated transcription
Assay: ARE Reporter - HepG2 cell line luciferase assay
Type: cell-based, human
Conditions: ARE reporter HepG2 cells, TZ 1 μM, ELA 3 μM, 18 h exposure, significant = fold induction over DMSO above 2 and p<0.05
Experimental: The ARE Reporter—Hep G2 cell line is designed to monitor Nrf2 antioxidant response pathway. The cell contains a firefly luciferase gene under the control of ARE (antioxidant response element) stably integrated into Hep G2 cells.
ARE reporter—HepG2 cells (BPS Bioscience, Inc., San Diego, cat #60513) were cultured following manufacturer's instructions. After thawing (BPS thaw medium 1K, cat #60187), cells were cultured in growth-medium (BPS growth medium 1K, cat #79533) and subsequently plated at a density of 40 000 cells per well in a 96-well microplate in 45 μL of assay medium (BPS thaw medium). TZ, ELA and DL-Sulforaphane (Sigma cat #S4441) were dissolved in DMSO and diluted into assay medium. 5 μl of dilution were added on cells to reach a final concentration of 1 μM for TZ and 3 μM for ELA. DL-Sulforaphane was used as a positive control at the dose of 3 μM. After 18 h exposure, luciferase activity was determined. 50 μL of One-Step Luciferase assay system (BPS cat #60690) were added per well and after ~15 min of rocking at room temperature, luminescence was measured using a luminometer.
Fold induction over DMSO above 2 and with a p-value <0.05 was considered as significant.

SMILES: O=C(Nc1ncc([N+](=O)[O-])s1)c1ccccc1O [TZ]
- activation of Nrf2-antioxidant pathway compared to the untreated condition: induces a significant activation
